Test results: ChEMBL document CHEMBL6127057, “Design and synthesis of Thieno[3, 2-b]pyridinone derivatives exhibiting potent activities against Mycobacterium tuberculosis in vivo by targeting Enoyl-ACP reductase” (Eur J Med Chem, 2024)
≈ marks a conversion by molar mass, not a printed value. Calls of active or inactive are those of the source. The calls are words filed in the database; no cut-off is given here.

Legend:
[1] = system: Mycobacterium tuberculosis; assay: Antimycobacterial activity against marker-free avirulent autoluminescent Mycobacterium tuberculosis H37Ra assessed as inhibition of relative light unit relative to control; type: functional
[2] = system: Staphylococcus aureus; assay: Antibacterial activity against Staphylococcus aureus assessed as bacterial growth inhibition incubated for 24 hrs; type: functional
[3] = system: Escherichia coli; assay: Antibacterial activity against Escherichia coli assessed as bacterial growth inhibition incubated for 24 hrs; type: functional
[4] = system: L02; assay: Cytotoxicity against human L02 cells incubated for 48 hrs by CCK-8 assay; type: toxicity, cell-based; details: l02, 48 h
[5] = system: Mycobacterium tuberculosis; assay: Antimycobacterial activity against Mycobacterium tuberculosis UAlRv infection model using mouse RAW264.7 cells assessed as inhibition of bacterial growth incubated for 72 hrs; type: functional
[6] = target: T1, Enoyl-[acyl-carrier-protein] reductase [NADH] (Mycobacterium tuberculosis) (UniProt P9WGR1); assay: Inhibition of C-terminal his-tagged Mycobacterium tuberculosis InhA extracted from Escherichia coli BL21(DE3) cells using trans-2-dodecenoyl-coenzyme A as substrate at 25 microM by UV based analysis
T1 sequence (whole entry): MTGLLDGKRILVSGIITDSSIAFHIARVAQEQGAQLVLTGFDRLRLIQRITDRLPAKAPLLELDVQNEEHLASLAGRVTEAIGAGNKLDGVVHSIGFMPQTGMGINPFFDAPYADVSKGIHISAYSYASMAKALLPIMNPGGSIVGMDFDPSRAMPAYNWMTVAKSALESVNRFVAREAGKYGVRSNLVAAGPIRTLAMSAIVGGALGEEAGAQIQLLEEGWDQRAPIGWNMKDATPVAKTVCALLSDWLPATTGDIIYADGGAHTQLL

[7] = system: Mycobacterium tuberculosis; assay: Antimycobacterial activity against wild-type Mycobacterium tuberculosis H37Rv incubated for 4 weeks by MABA assay; type: functional; details: 672 h
[8] = system: Mycobacterium tuberculosis; assay: Antimycobacterial activity against Mycobacterium tuberculosis H37Rv assessed as inhibition of growth by kill kinetic analysis; type: functional
[9] = system: Cryptococcus neoformans; assay: Antifungal activity against Cryptococcus neoformans assessed as fungal growth inhibition incubated for 72 hrs; type: functional
[10] = system: Candida albicans; assay: Antifungal activity against Candida albicans assessed as fungal growth inhibition incubated for 48 hrs; type: functional
[11] = Tmax in male Sprague-Dawley rat at 100 mg/kg, po measured upto 240 hrs by LC/MS/MS analysis; type: ADME, organism-based; details: in vivo
[12] = Cmax in male Sprague-Dawley rat at 100 mg/kg, po measured upto 240 hrs by LC/MS/MS analysis; type: ADME, organism-based; details: in vivo
[13] = Half life in male Sprague-Dawley rat at 100 mg/kg, po measured upto 240 hrs by LC/MS/MS analysis; type: ADME, organism-based; details: in vivo
[14] = Half life in male Sprague-Dawley rat at 1 mg/kg, iv measured upto 240 hrs by LC/MS/MS analysis; type: ADME, organism-based; details: in vivo
[15] = AUC (0 to infinity) in male Sprague-Dawley rat at 1 mg/kg, iv measured upto 240 hrs by LC/MS/MS analysis; type: ADME, organism-based; details: in vivo
[16] = AUC (0 to infinity) in male Sprague-Dawley rat at 100 mg/kg, po measured upto 240 hrs by LC/MS/MS analysis; type: ADME, organism-based; details: in vivo
[17] = Oral bioavailability in male Sprague-Dawley rat at 100 mg/kg measured upto 240 hrs by LC/MS/MS analysis; type: ADME, organism-based; details: in vivo
[18] = system: Mycobacterium tuberculosis; assay: Antimycobacterial activity against Mycobacterium tuberculosis H37Rv infected in female BALB/c mouse assessed as reduction in relative light unit in lung, po administered once daily for 5 days; type: functional, organism-based; details: dose 30-300 mg/kg, time 5.0 day
[19] = system: Mycobacterium tuberculosis; assay: Antimycobacterial activity against Mycobacterium tuberculosis H37Rv infected in female BALB/c mouse assessed as reduction in relative light unit in lung at 300 mg/kg, po administered once daily for 5 days; type: functional; details: time 5 day
[20] = system: Mycobacterium tuberculosis; assay: Antimycobacterial activity against Mycobacterium tuberculosis H37Rv infected in female BALB/c mouse assessed as reduction in relative light unit in spleen at 300 mg/kg, po administered once daily for 5 days; type: functional; details: time 5 day
[21] = system: Mycobacterium tuberculosis; assay: Antimycobacterial activity against Mycobacterium tuberculosis H37Rv infected in female BALB/c mouse assessed as reduction in relative light unit in lung at 30 mg/kg, po in presence of Rifampicin administered once daily for 5 days; type: functional; details: time 5 day
[22] = system: Mycobacterium tuberculosis; assay: Antimycobacterial activity against Mycobacterium tuberculosis H37Rv infected in female BALB/c mouse assessed as reduction in relative light unit in lung at 100 mg/kg, po administered once daily for 5 days; type: functional; details: time 5 day
[23] = system: Mycobacterium tuberculosis; assay: Antimycobacterial activity against Mycobacterium tuberculosis H37Rv infected in female BALB/c mouse assessed as reduction in relative light unit in lung at 100 mg/kg, po in presence of Rifampicin administered once daily for 5 days; type: functional; details: time 5 day
[24] = system: Mycolicibacterium smegmatis; assay: Antimycobacterial activity against recombinant Mycobacterium smegmatis transfected with pMV261-Mtb InhA assessed as inhibition of bacterial growth at 0.25 to 64 microg/ml incubated for 3 days; type: functional; details: 72 h, dose 0.25-64 µg/ml, time 3 day
[25] = system: Mycolicibacterium smegmatis; assay: Antimycobacterial activity against recombinant Mycobacterium smegmatis transfected with pMV261 assessed as inhibition of bacterial growth at 0.25 to 64 microg/ml incubated for 3 days; type: functional; details: 72 h, dose 0.25-64 µg/ml, time 3 day
[26] = system: Mycolicibacterium smegmatis; assay: Selectivity ratio of MIC for recombinant Mycobacterium smegmatis transfected with pMV261-Mtb InhA to MIC for recombinant Mycobacterium smegmatis transfected with pMV261; type: functional
[27] = Toxicity in BALB/c mouse infected with Mycobacterium tuberculosis H37Rv assessed as optimal condition at 300 mg/kg, po administered once daily for 5 days; type: organism-based; details: in vivo, 120 h, time 5 day

## N#Cc1cccc(-c2c(O)c3scc(Br)c3[nH]c2=O)c1
[1]
  MIC90: > 64 µg/mL

## O=c1[nH]c2c(Br)csc2c(O)c1-c1ccccc1Cl
[1]
  MIC90: 1 µg/mL (≈ 2.8 µM)

## O=c1[nH]c2c(Br)csc2c(O)c1-c1cccc([N+](=O)[O-])c1
[1]
  MIC90: > 64 µg/mL

## Cc1ccc(-c2c(O)c3scc(Br)c3[nH]c2=O)cc1
[1]
  MIC90: 32 µg/mL (≈ 95.2 µM)

## O=c1[nH]c2c(Br)csc2c(O)c1-c1cccc(Cl)c1
[1]
  MIC90: 0.5 µg/mL (≈ 1.4 µM)
[2]
  MIC99: > 64 µg/mL
[3]
  MIC99: > 64 µg/mL
[4]
  Activity: Toxic
[5]
  MIC90: 1 µg/mL (≈ 2.8 µM)
[6]
  inhibition: Active

## CO[C@H]1/C=C/O[C@@]2(C)Oc3c(C)c(O)c4c(O)c(c(/C=N/N5CCN(C)CC5)c(O)c4c3C2=O)NC(=O)/C(C)=C\C=C\[C@H](C)[C@H](O)[C@@H](C)[C@@H](O)[C@@H](C)[C@H](OC(C)=O)[C@@H]1C [RIFAMPIN]
[1]
  MIC90: 0.25 µg/mL (≈ 0.304 µM)
[7]
  MIC: 0.125 µg/mL (≈ 0.152 µM)

## O=c1[nH]c2c(Br)csc2c(O)c1-c1cccs1
[1]
  MIC90: 4 µg/mL (≈ 12.2 µM)

## CC(=O)Oc1c(-c2ccccc2)c(=O)n(C(C)=O)c2c(Br)csc12
[1]
  MIC90: 4 µg/mL (≈ 9.85 µM)

## CC1(C)S[C@@H]2[C@H](NC(=O)[C@H](N)c3ccc(O)cc3)C(=O)N2[C@H]1C(=O)O [AMOXICILLIN]
[2]
  MIC99: 0.5 µg/mL (≈ 1.37 µM)
[3]
  MIC99: 0.05 µg/mL (≈ 0.137 µM)

## O=c1[nH]c2c(Br)csc2c(O)c1-c1cccc(Br)c1
[1]
  MIC90: 16 µg/mL (≈ 39.9 µM)

## O=c1[nH]c2c(Br)csc2c(O)c1-c1ccc([N+](=O)[O-])cc1
[1]
  MIC90: 32 µg/mL (≈ 87.2 µM)

## CC1(C)CCC(Cc2cc(O)c(-c3ccccc3)c(=O)[nH]2)CC1
[8]
  MIC50: 0.05 µM (≈ 0.0156 µg/mL)

## Cc1ccccc1-c1c(O)c2scc(Br)c2[nH]c1=O
[1]
  MIC90: 0.5 µg/mL (≈ 1.49 µM)
[2]
  MIC99: > 64 µg/mL
[3]
  MIC99: > 64 µg/mL
[9]
  MIC80: > 64 µg/mL
[10]
  MIC80: > 64 µg/mL

## O=c1[nH]c2c(Br)csc2c(O)c1-c1ccc(Cl)cc1
[1]
  MIC90: > 64 µg/mL

## NNC(=O)c1ccncc1 [ISONIAZID]
[7]
  MIC: 0.03 µg/mL (≈ 0.219 µM)
[8]
  MIC50: 0.33 µM (≈ 0.0453 µg/mL)

## CC(C)(C)c1ccc(-c2c(O)c3scc(Br)c3[nH]c2=O)cc1
[1]
  MIC90: > 64 µg/mL

## O=c1[nH]c2c(Br)csc2c(O)c1-c1cccc(OC(F)(F)F)c1
[1]
  MIC90: > 64 µg/mL

## O=c1[nH]c2c(Br)csc2c(O)c1-c1cccc(F)c1
[1]
  MIC90: 0.5 µg/mL (≈ 1.47 µM)
[2]
  MIC99: > 64 µg/mL
[3]
  MIC99: > 64 µg/mL
[9]
  MIC80: > 64 µg/mL
[10]
  MIC80: > 64 µg/mL

## O=c1[nH]c2c(Br)csc2c(O)c1-c1cccc(Oc2ccccc2)c1
[1]
  MIC90: 32 µg/mL (≈ 77.2 µM)

## O=c1[nH]c2c(Br)csc2c(O)c1-c1ccc(C(F)(F)F)cc1
[1]
  MIC90: 16 µg/mL (≈ 41 µM)

## O=c1[nH]c2c(Br)csc2c(O)c1-c1ccc(F)cc1
[1]
  MIC90: 2 µg/mL (≈ 5.88 µM)

## O=c1[nH]c2c(Br)csc2c(O)c1-c1ccc2ccccc2c1
[1]
  MIC90: 16 µg/mL (≈ 43 µM)

## O=c1[nH]c2c(Br)csc2c(O)c1-c1ccccc1F
[1]
  MIC90: 0.5 µg/mL (≈ 1.47 µM)
[2]
  MIC99: > 64 µg/mL
[3]
  MIC99: > 64 µg/mL
[9]
  MIC80: > 64 µg/mL
[10]
  MIC80: > 64 µg/mL

## Cc1csc2c(O)c(-c3ccccc3)c(=O)[nH]c12
[1]
  MIC90: 4 µg/mL (≈ 15.5 µM)

## O=c1[nH]c2c(Br)csc2c(O)c1-c1ccccc1
[1]
  MIC90: 0.5 µg/mL (≈ 1.55 µM)
[2]
  MIC99: > 64 µg/mL
[3]
  MIC99: > 64 µg/mL

## COc1cccc(-c2c(O)c3scc(Br)c3[nH]c2=O)c1
[1]
  MIC90: 8 µg/mL (≈ 22.7 µM)

## O=c1[nH]c2c(Br)csc2c(O)c1-c1ccc(Cl)cc1Cl
[1]
  MIC90: > 64 µg/mL

## COc1ccc(-c2c(O)c3scc(Br)c3[nH]c2=O)cc1
[1]
  MIC90: 16 µg/mL (≈ 45.4 µM)

## Cc1ccc(C)c(-c2c(O)c3scc(Br)c3[nH]c2=O)c1
[1]
  MIC90: 32 µg/mL (≈ 91.4 µM)

## N#Cc1ccc(-c2c(O)c3scc(Br)c3[nH]c2=O)cc1
[1]
  MIC90: 32 µg/mL (≈ 92.2 µM)

## O=c1[nH]c2c(Br)csc2c(O)c1-c1ccc(Br)cc1
[1]
  MIC90: 16 µg/mL (≈ 39.9 µM)

## C[C@@H]1[C@H](O)[C@@H](C)/C=C/C=C/C=C/C=C/C=C/C=C/C=C/[C@H](O[C@@H]2O[C@H](C)[C@@H](O)[C@H](N)[C@@H]2O)C[C@@H]2O[C@](O)(C[C@@H](O)C[C@@H](O)[C@H](O)CC[C@@H](O)C[C@@H](O)CC(=O)O[C@H]1C)C[C@H](O)[C@H]2C(=O)O [AMPHOTERICIN B]
[9]
  MIC80: 0.5 µg/mL (≈ 0.541 µM)
[10]
  MIC80: 0.125 µg/mL (≈ 0.135 µM)

## O=c1[nH]c2c(Br)csc2c(O)c1-c1ccco1
[1]
  MIC90: 8 µg/mL (≈ 25.6 µM)

## Cc1cccc(-c2c(O)c3scc(Br)c3[nH]c2=O)c1
[1]
  MIC90: 0.5 µg/mL (≈ 1.49 µM)
[2]
  MIC99: > 64 µg/mL
[3]
  MIC99: > 64 µg/mL
[9]
  MIC80: > 64 µg/mL
[10]
  MIC80: > 64 µg/mL
[4]
  Activity: Toxic
[5]
  MIC90: 1 µg/mL (≈ 2.97 µM)
[11]
  Tmax: 6 h
[12]
  Cmax: 283 µM
[13]
  half-life: 48 h
[14]
  half-life: 35.6 h
[15]
  AUC: 1200 µM·h
[16]
  AUC: 19700 µM·h
[17]
  bioavailability: 16.4%
[18]
  Activity: Dose-Dependent Effect
[19]
  Activity: 0.64 log10RLU
[20]
  Activity: 0.37 log10RLU
[21]
  Activity: 0.29 log10RLU
[22]
  Activity: 4.93 log10RLU
[23]
  Activity: 5.31 log10RLU
[24]
  MIC: 4 µg/mL
[25]
  MIC: 1 µg/mL
[7]
  MIC: 0.5 µg/mL (≈ 1.49 µM)
[6]
  inhibition: Active
[26]
  Selectivity ratio: 2
[27]
  Activity: Non-Toxic

## O=c1[nH]c2c(Br)csc2c(O)c1-c1ccc(Cl)cc1F
[1]
  MIC90: 16 µg/mL (≈ 42.7 µM)
